Laboratory results reported in patent US8017611B2, “Pyridine and pyrazine derivatives -083” (AstraZeneca AB, priority 2007, dated 2011).

Molecular target: T1, recombinant Axl tyrosine kinase (Homo sapiens, UniProt P30530)
T1 construct: encompassing amino acids 473 to 894 of Axl; GST (N); made in house; host or cells: SF126 insect cells
T1 sequence (P30530 473-894): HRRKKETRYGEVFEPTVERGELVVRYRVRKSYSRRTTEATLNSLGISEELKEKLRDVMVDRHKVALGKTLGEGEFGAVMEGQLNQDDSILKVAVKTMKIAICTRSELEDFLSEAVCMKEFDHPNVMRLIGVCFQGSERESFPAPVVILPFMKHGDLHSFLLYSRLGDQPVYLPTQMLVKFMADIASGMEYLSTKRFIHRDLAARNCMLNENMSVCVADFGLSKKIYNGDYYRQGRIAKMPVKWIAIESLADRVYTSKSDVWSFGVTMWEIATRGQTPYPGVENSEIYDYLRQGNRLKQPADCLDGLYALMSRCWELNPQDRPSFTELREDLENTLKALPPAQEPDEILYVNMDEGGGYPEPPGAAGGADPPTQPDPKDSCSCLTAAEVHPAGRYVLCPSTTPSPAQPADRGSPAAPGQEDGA
Assay: In vitro Axl kinase assay (AlphaScreen), Test (a)
Type: biochemical
Details: for % Axl tyrosine kinase inhibition at 1 μM concentration / inhibition at 1 µM: test compound at 1 μM, first value quoted; for inhibition at 1 µM: read-out: % Axl tyrosine kinase inhibition at 1 μM concentration

| Structure (SMILES) | % Axl tyrosine kinase inhibition at 1 μM concentration | further results |
| --- | --- | --- |
| CS(=O)(=O)N1CCN(CCCOc2ccc(-c3cnc(N)c(-c4nc5ncccc5o4)c3)cc2)CC1 [Example 43B.15] | 86.0% |  |
| Nc1ncc(-c2ccc(C(=O)NCCN3CC[C@H](F)C3)cc2)cc1-c1nc2cccnc2o1 [Example 45A.38] | 98.4% |  |
| Nc1ncc(-c2ccc(C(=O)N3CCC[C@H](N)C3)cc2)cc1-c1nc2cccnc2o1 [Example 45A.88] | 99.8% |  |
| CC1CCCCN1CC1CCCN1C(=O)c1ccc(-c2cnc(N)c(-c3nc4cccnc4o3)c2)cc1 (stereo not drawn) [Example 45A.18] | 99.7% |  |
| CN1CCOC(CNC(=O)c2ccc(-c3cnc(N)c(-c4nc5cccnc5o4)c3)cc2)C1 (stereo not drawn) [Example 45A.28] | 97.5% |  |
| Cc1nn(C2CCN(C(=O)OC(C)(C)C)CC2)cc1-c1cnc(N)c(-c2nc3ccccc3o2)c1 [Example 21, Tert-butyl 4-[4-[6-amino-5-(1,3-benzoxazol-2-yl)-3-pyridyl]-3-methyl-pyrazol-1-yl]piperidine-1-carboxylate] |  | inhibition at 1 µM: 9.7%; inhibition at 30 µM (test compound at 30 μM, read-out: % of Axl tyrosine kinase activity inhibited at a concentration of 30 μM): 76.4% |
| CN(C)Cc1ccc(-c2cnc(N)c(-c3nc4ccccc4o3)c2)cc1 [Example 1, 3-Benzoxazol-2-yl-5-[4-(dimethylaminomethyl)phenyl]pyridin-2-amine] |  | inhibition at 1 µM: 99.8% |
| CN1C2CCC1CC(n1cc(-c3cnc(N)c(-c4nc5ccccc5o4)c3)cn1)C2 (stereo not drawn) [Example 27.6] | 99.9% |  |
| CNC1CCC(NC(=O)c2ccc(-c3cnc(N)c(-c4nc5cccnc5o4)c3)cc2)CC1 (stereo not drawn) [Example 45A.99] | 95.9% |  |
| Nc1ncc(-c2cccc(CN3CCCC3)c2)cc1-c1nc2cnccc2o1 [Example 8A.1] | 95.6% |  |
| Nc1ncc(-c2ccc(C(=O)NC[C@@H]3CCCN3)cc2)cc1-c1nc2cccnc2o1 [Example 45A.90] | 98.9% |  |
| CN1CCCCC1C1CCCN1C(=O)c1ccc(-c2cnc(N)c(-c3nc4cccnc4o3)c2)cc1 (stereo not drawn) [Example 45A.15] | 99.7% |  |
| Nc1ncc(-c2ccc(C(=O)NCCCN3CC[C@H](F)C3)cc2)cc1-c1nc2cccnc2o1 [Example 45A.40] | 98.3% |  |
| CNCCCOc1ccc(-c2cnc(N)c(-c3nc4ncccc4o3)c2)cc1 [Example 43B.32] | 98.6% |  |
| Nc1ncc(-c2ccc(OCCC3CCCCN3)cc2)cc1-c1nc2ncccc2o1 (stereo not drawn) [Example 43B.40] | 97.7% |  |

Now from value to compound, other results behind:

| % Axl tyrosine kinase inhibition at 1 μM concentration | Structure (SMILES) | further results |
| --- | --- | --- |
| 100.0% | COc1cccc2nc(-c3cc(-c4cn(C5CCNCC5)nc4C)cnc3N)oc12 [Example 62.15] |  |
| 98.9% | Nc1ncc(-c2cccc(N3CCOCC3)c2)nc1-c1nc2ccccc2o1 [Example 20.8] |  |
| 100.0% | CN1CCC(n2cc(-c3cnc(N)c(-c4nc5c(F)cccc5o4)c3)c(CO)n2)CC1 [Example 41.32] |  |
| 99.1% | Nc1ncc(-c2cccc(CN3CCOCC3)c2)nc1-c1nc2ccccc2o1 [Example 20.10] |  |
| 98.4% | CN(C)CCn1cc(-c2cnc(N)c(-c3nc4ccccc4o3)c2)cn1 [Example 27.5] |  |
| 100.0% | COc1cccc2nc(-c3cc(-c4cn(C5CCN(C)CC5)nc4CO)cnc3N)oc12 [Example 41.42] | IC50 (Test (a), read-out: IC50 versus Axl tyrosine kinase): ~0.2 nM |
| 98.8% | CN(C)C(=O)c1nn(C2CCNCC2)cc1-c1cnc(N)c(-c2nc3ccccc3o2)c1 [Example 62.2] |  |
| 98.7% | C[C@H](O)C(=O)N1CCC(n2cc(-c3cnc(N)c(-c4nc5ncccc5o4)c3)cn2)CC1 [Example 57.3] |  |
| 99.9% | Cc1nn(C2CCNCC2)cc1-c1cnc(N)c(-c2nc3ncccc3o2)c1 [Example 25.16] |  |
| 96.5% | CN(C)CCNC(=O)c1cccc(-c2cnc(N)c(-c3nc4ccccc4o3)c2)c1 [Example 2.8] |  |
